# Tested on: chicken embryo
# Experiment: Toxicity of graphene oxide and nano-Pt in chicken embryo (in ovo)
# Conditions: in vivo
# Description: Biological models: study was conducted on models: 1. Chicken embryo maintained by in ovo method, which above all allowed for fast, accurate and insightful observations of potential toxicity, especially embryotoxicity of graphene oxide and Pt nanoparticles of various concentrations. 2. Glioblastoma multiforme GM (U-87) cell lines in order to observe basic mechanisms occurring in the cells under the influence of graphene oxide and platinum nanoparticles and having selected the used experimental factors 3. Glioblastoma multiforme (U-87) tumour grown by in ovo method in order to confirm or reject the preliminary results. This study allowed for the final verification of formulated hypotheses.
# Step I—preliminary study—determination of potential toxic properties of graphene oxide and nano-Pt in contact with a living organism (chicken embryo) • Determination of the influence of graphene oxide and nano-Pt on homeostasis of the organism of chicken embryo (survival rate, growth and development, biochemical and morphological indicators of blood, expression of selected genes, image of microstructure and ultrastructure of the brain, apoptosis/necrosis and others). […] The study indicated a potential antitumor effect of Pt nanoparticles and a low degree of toxicity.
substance,measurement,value
graphene oxide,"toxic effects on biochemical and morphological indicators of blood, FGF, VEGF, PCNA gene expression, microstructure and ultrastructure of brain and liver",does not exhibit toxic effects

# Reference: patent publication US10471095B2, “Suspension of graphene oxide nanoflakes in water, its use and a method of preparation thereof” (priority 2014, dated 2019)
